Values quoted from earlier work in patent US20100197704A1, “PHARMACEUTICAL COMPOSITIONS AND METHOD FOR TREATING ACUTE MANIA” (priority 2007, published 2010).

What was measured:
Conditions in all cases: cited from earlier work
presynaptic D2 receptors = presynaptic D2 receptors (Homo sapiens, UniProt P14416)
5-HT2C = target: T1, 5-HT2C (Homo sapiens, UniProt P28335)
T1 sequence (P28335 33-458): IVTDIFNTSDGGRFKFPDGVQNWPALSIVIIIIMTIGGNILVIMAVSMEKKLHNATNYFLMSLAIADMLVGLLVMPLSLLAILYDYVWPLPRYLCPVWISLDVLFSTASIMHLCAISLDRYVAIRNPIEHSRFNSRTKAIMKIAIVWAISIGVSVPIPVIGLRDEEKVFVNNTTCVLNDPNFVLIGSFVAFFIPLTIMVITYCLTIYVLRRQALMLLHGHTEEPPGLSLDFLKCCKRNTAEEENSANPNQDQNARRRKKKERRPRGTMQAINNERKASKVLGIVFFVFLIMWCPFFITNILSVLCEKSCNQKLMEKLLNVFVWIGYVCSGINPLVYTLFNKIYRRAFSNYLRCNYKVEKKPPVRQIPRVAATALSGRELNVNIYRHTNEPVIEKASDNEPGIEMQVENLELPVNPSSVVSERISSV

histamine H1 = histamine H1 (Homo sapiens, UniProt P35367)
Sequence of histamine H1 (P35367 whole entry): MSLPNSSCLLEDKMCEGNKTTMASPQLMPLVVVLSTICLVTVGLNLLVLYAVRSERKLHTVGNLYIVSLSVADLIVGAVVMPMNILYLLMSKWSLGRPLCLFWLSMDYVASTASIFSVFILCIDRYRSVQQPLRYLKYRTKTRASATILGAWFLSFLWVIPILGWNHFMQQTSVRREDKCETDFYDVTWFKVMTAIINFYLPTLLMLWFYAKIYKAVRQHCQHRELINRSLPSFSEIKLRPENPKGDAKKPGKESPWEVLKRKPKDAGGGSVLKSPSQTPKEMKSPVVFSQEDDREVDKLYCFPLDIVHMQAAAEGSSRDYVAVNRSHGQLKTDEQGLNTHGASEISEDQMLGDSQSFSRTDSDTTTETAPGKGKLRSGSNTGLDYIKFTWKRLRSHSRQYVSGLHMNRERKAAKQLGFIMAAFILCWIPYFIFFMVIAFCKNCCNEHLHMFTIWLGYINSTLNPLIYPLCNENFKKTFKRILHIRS

[1] = system: adrenergic receptor sites
[2] = target: T2, serotonin 5-HT1A receptors (Homo sapiens, UniProt P08908)
T2 sequence (P08908 1-422): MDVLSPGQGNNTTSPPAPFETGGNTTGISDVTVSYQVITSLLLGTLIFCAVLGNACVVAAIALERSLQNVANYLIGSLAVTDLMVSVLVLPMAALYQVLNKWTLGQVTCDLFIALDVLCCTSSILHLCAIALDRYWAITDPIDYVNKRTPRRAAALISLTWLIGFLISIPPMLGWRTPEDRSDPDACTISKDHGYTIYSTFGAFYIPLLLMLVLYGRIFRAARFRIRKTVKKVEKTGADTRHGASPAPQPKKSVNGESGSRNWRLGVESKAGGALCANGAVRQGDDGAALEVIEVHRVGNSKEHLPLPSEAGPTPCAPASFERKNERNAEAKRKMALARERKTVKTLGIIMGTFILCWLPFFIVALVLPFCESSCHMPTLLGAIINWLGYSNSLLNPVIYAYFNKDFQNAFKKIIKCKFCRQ

[3] = target: T2, serotonin 5-HT1A receptors; remark: listed apart in the source

Sequence of presynaptic D2 receptors (P14416 whole entry): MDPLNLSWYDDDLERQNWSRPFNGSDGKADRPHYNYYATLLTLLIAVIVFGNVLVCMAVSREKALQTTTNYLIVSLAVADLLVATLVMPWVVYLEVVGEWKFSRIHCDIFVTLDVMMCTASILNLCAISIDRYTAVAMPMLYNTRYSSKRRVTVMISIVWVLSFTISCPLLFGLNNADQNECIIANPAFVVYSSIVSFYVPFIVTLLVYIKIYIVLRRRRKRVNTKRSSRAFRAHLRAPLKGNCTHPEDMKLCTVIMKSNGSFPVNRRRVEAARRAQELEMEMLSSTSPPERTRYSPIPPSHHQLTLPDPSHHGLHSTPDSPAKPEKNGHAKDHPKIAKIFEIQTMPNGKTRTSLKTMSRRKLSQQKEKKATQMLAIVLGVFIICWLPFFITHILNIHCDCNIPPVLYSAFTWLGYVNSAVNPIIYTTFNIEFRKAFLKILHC

For `CN(C)C(=O)NC1CCC(CCN2CCN(c3cccc(Cl)c3Cl)CC2)CC1.Cl` (stereo not drawn) [trans-4-{2-[4-(2,3-dichlorophenyl)-piperazin-1-yl]-ethyl}-N,N-dimethylcarbamoyl-cyclohexylamine hydrochloride], the “activity on biosynthesis (and release) modulating presynaptic D2 receptors” value (presynaptic D2 receptors; depending on the functional status of the particular dopaminergic system) is listed as “both (partial) agonist and antagonist activity”, the “in vivo mode of action on the dopamine system” value (presynaptic D2 receptors; in vivo, preferential dopaminergic actions in the limbic regions) is listed as “dopamine system stabilizer” and the “potency at 5-HT2C receptor site” value (5-HT2C) is listed as “low potency”. For the same molecule, the “potency at histamine H1 receptor site” value (histamine H1) was “low potency”, the “potency at adrenergic receptor sites” value [1] was “low potency” and the “affinity for serotonin 5-HT1A receptors” value [2] was “considerable affinity”. The “functional activity at serotonin 5-HT1A receptors” value [3] was “partial agonist”.
